Test results published in patent US10010529B2, “Extended release pharmaceutical formulations with controlled impurity levels” (Ezra Pharma LLC, priority 2016, dated 2018).

How the values were obtained:
[1] = Compatibility study for valsartan related compound A (Impurity A), 2 weeks 60° C. closed glass vial; assay type: physicochemical
Procedure: Valsartan and valsartan solubilized in molten solubilizers as depicted in tables I and II respectively were subjected to compatibility studies at the following condition: • 2 weeks 60° C. closed glass vial Solubilized valsartan used for the study was prepared by melting the solubiliser/s (Kolliphor P 407, Kolliphor TPGS and combination thereof) in a beaker at water bath temperature 65° C. The drug was mixed with the molten solubiliser/s uniformly at water bath temperature 65° C. and the cooled mass was used in the studies. Levels of Impurity A were evaluated at the tabulated conditions as mentioned in Table III.

[2] = in vivo; cited from earlier work

## CCCCC(=O)N(Cc1ccc(-c2ccccc2-c2nnn[nH]2)cc1)[C@H](C(=O)O)C(C)C [Valsartan API, (S)—N-(1-oxopentyl)-N-[[2′-(1H-tetrazol-5-yl) [1,1′-biphenyl]-4-yl]methyl]-L-valine]
[1]; 2 weeks 60° C., closed glass vial
  Impurity A level, 2 Weeks 60° C. Closed glass Vial: 0.05
[1]; conditions of the compatibility study
  generation of Valsartan R-isomer impurity (Impurity A), in words: not generated
[1]; initial
  Impurity A level, Initial: 0.03
[2]
  absolute bioavailability: about 25%
